Reference: patent publication US20130252843A1, “METHOD OF MAKING AND USING FLUORESCENT-TAGGED NANOPARTICLES AND MICROARRAYS” (THE STATE OF OREGON ACTING BY AND THROUGH THE STATE BOARD …, priority 2010, published 2013)
pKd: −log10 of the molar value. Values joined by “and” are separate entries in the source; they are usually repeats but may differ in a detail not shown here. Identical values can stand only once. Like-named read-outs stand apart in the source and are kept apart here.

Legend:
ConA-FSNPs = target: T1, ConA-FSNPs (Canavalia ensiformis, UniProt P02866); assay: Carbohydrate microarray incubated with ConA-FSNPs, fluorescence imaging; assay type: binding; conditions: PS coating; ConA-FSNPs 0.5 mg/ml
T1 construct: purchased Sigma-Aldrich Type IV
Protocol: This example concerns the fabrication of carbohydrate microarrays. […] The slides were then reacted with PAAm-4-PFPA solution at 50° C. for 5 hours, and sonicated twice in H2O for 5 minutes each time. Solutions of carbohydrates were prepared in H2O. […] The slides were dried under oil pump for 1 hour. A solution of PS or PEO in CHCl3 (5 mg/ml) was spinning-coated on the slides. The Slides were then covered with a 280-nm long-path optical filter (WG-280, Schott Glass), irradiated with a 450-W medium pressure Hg lamp (Hanovia) for 9 min, sonicated 5 min in CHCl3 and 5 minutes in H2O.
This example concerns microarray assay and fluorescence imaging. Carbohydrate microarrays were incubated in a 0.5 mg/ml solution of ConA-FSNPs in HEPES (pH 7.5, 1 mM CaCl2, 1 mM MnCl2) for 1 hour, rinsed with HEPES buffer 3 times and dried. The slides were scanned using a Genepix 4000B microarray scanner at excitation of 532 nm. Image analysis was carried out with Axon Genepix Pro 5.1 analysis software (Molecular Devices Corporation, Union City, Calif.).
FIG. 52 provides the fluorescence images of carbohydrate microarrays with PS or PEO coating incubated with ConA-FSNPs at 0.5 mg/ml. […] However, for carbohydrate microarrays having a PEO coating, the signal from those “high-intensity” carbohydrate targets was negative (FIG. 53).

Con A [1] = target: T2, Con A (Canavalia ensiformis, UniProt P02866); assay: Protein bio assay, SPR shift of sugar coupled Au-PFPA nanoparticles with lectin; assay type: binding; set-up: unit: nm; conditions: replicates
T2 construct: purchased Sigma-Aldrich Type IV (catalogue number not given)
Excerpt: (§1) In other particular embodiments, the interactions between one or more targets and one or more PHPA-derived nanoparticle probes can be measured using absorbance spectroscopy. Particular embodiments concern using surface plasmon resonance. In these embodiments, both the λmax produced before the PHPA-derived nanoparticle probe interacts with the target and the λmax produced after the PHPA-derived nanoparticle probe interacts with the target are detected. The change in λmax provides a numerical number that can be used in further statistical analysis.
The unspecific binding sites of Sugar coupled Au-PFPA was inhibited by the addition of BSA (3% BSA, 0.2% Tween in PBS buffer pH 7). The 1,500 μL of sugar-coupled Au-PFPA was centrifuged at 9,000 rpm for 8 minutes and was redissolved in a PBS buffer with 3% BSA (0.2% Tween). The volume was made up to 900 μL. The resultant solution was incubated at room temperature with gentle shaking for 1 hour. The BSA blocked Au-PFPA-sugar nanoparticle was centrifuged at 10,000 rpm for 6 minutes and the excess BSA was removed. To a volume of 1,500 μL solution 10 mg/mL lectin (Con A—Concanavalin A, Canavalia ensiformis jack bean protein, SBA—soybean agglutinin, Glycine max and PNA—Peanut Agglutinin, Arachis hypogaea all purchased from Sigma Aldrich) was introduced the resultant solution was incubated at room temperature while gently shaking. […]

[2] = target: blindly prepared lectins (U1-U7) (Glycine max, UniProt P05046); assay type: binding; set-up: unit not given here
Protocol: (§2) The unspecific binding sites of Sugar coupled Au-PFPA was inhibited by the addition of BSA (3% BSA, 0.2% Tween in PBS buffer pH 7). The 1,500 μL of sugar-coupled Au-PFPA was centrifuged at 9,000 rpm for 8 minutes and was redissolved in a PBS buffer with 3% BSA (0.2% Tween). The volume was made up to 900 μL. The resultant solution was incubated at room temperature with gentle shaking for 1 hour. The BSA blocked Au-PFPA-sugar nanoparticle was centrifuged at 10,000 rpm for 6 minutes and the excess BSA was removed. To a volume of 1,500 μL solution 10 mg/mL lectin (Con A—Concanavalin A, Canavalia ensiformis jack bean protein, SBA—soybean agglutinin, Glycine max and PNA—Peanut Agglutinin, Arachis hypogaea all purchased from Sigma Aldrich) was introduced the resultant solution was incubated at room temperature while gently shaking.
(§3) To test the training matrix and its strength to identify individual lectins, seven blindly prepared lectins (U1-U7) were used as test samples. The procedure for each test sample is the same as that used for the known samples used in the training matrix. The final SPR shift (Table 14) was used in the training matrix (Table 10) for prediction.

[3] = target: blindly prepared lectins (U1-U7) (Arachis hypogaea, UniProt P02872); assay type: binding; set-up: unit not given here; conditions: unknown protein u5 (predicted class PNA)
Protocol: as §2, §3

[4] = target: blindly prepared lectins (U1-U7) (Canavalia ensiformis, UniProt P02866); assay type: binding; set-up: unit not given here
Protocol: as §2, §3

SBA = target: T3, SBA (Glycine max, UniProt P05046); assay: Protein bio assay, SPR shift of sugar coupled Au-PFPA nanoparticles with lectin; assay type: binding; set-up: unit: nm; conditions: replicates
T3 construct: purchased Sigma-Aldrich
Excerpt: as §1, §2
(§4) A training matrix was created using three lectins (Con A, SBA and PNA) and four types of sugar-bound Au-PFPA nanoparticles. Each assay was repeated three times, providing a 3×4×3 training matrix (Table 10). The factor scores (Zi from equation (1) or Fi) calculated for the training matrix from XLSTAT® were F1=98.10% and F2=1.90%.
(§5) A study was also done to identify different lectins using specific binding interaction between lectins and sugars (Wang, X.; Ramstrom, O.; Yan, M. J. Mat. Chem. 2009, 19, 8944-8949). The lectins used in the study were Con A, SBA, PNA and GSII. The sugars used were D-Mannose, D-Glucose, D-Galactose, α-1,4-mannobiose, α-1,3-galactobiose and N-acetyl-D-glucosamine. These sugars are known to have specific binding to lectins (Jurs, P. Science 1986, 232, 1219-1224). The training matrix was created as four lectins×six sugars×five replicates (Table 12). […] The Wilk's lamda (A) value for the training set was 0.000. […] The 95% confidence ellipses show clear spatial separation, and no overlap between the ellipses is visible. Unlike the weak binding interactions studied in before using non-specific binding sugars, the strong binding sugars show very good class separation.

PNA [5] = target: T4, PNA (Arachis hypogaea, UniProt P02872); assay: as above; assay type: binding; set-up: unit: nm; conditions: replicates
T4 construct: purchased Sigma-Aldrich
T4 sequence (P02872 24-273): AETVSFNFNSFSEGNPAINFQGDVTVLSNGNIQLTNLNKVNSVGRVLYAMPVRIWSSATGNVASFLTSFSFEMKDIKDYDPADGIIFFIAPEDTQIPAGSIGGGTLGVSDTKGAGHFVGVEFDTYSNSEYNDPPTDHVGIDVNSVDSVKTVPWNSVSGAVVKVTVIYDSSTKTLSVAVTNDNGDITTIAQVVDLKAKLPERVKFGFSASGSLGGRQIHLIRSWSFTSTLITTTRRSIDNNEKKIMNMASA
Excerpt: as §1, §2, §4, §5

CVN-M = CVN-M (Nostoc ellipsosporum, UniProt P81180, E41A/N42A/T57A/R76A/Q78G)
Con A [6] = target: T2, Con A
CVN-Q = CVN-Q (Nostoc ellipsosporum, UniProt P81180, Q50C)
[7] = target: RCA (Ricinus Communis Agglutinin I) (Ricinus communis, UniProt P06750); conditions: free glycan; cited from earlier work
SBA (Soybean Agglutinin) = SBA (Soybean Agglutinin) (Glycine max, UniProt P05046); conditions: free glycan; cited from earlier work
PNA [8] = target: T4, PNA; conditions: free glycan; cited from earlier work
[9] = target: DBA (Dolichos Biflorus Agglutinin) (Vigna unguiculata subsp. cylindrica, UniProt P05045); conditions: free glycan; cited from earlier work
[10] = target: RCA, Ricinus Communis Agglutinin I; conditions: cited from earlier work
PNA, Peanut Agglutinin = target: T5, PNA, Peanut Agglutinin (Arachis hypogaea, UniProt P02872); conditions: cited from earlier work
T5 construct: purchased Sigma-Aldrich

[11] = UV irradiation photostability; assay type: physicochemical; conditions: 450-W medium-pressure Hg lamp, 10 minutes; of the original value
Protocol: To confirm that the entrapped FITC would withstand the UV irradiation conditions used for a subsequent photocoupling reaction, a solution containing FITC-doped SNPs was irradiated with a 450-W medium-pressure Hg lamp for 10 minutes. […] See, FIG. 6. On the other hand, when the […] was irradiated under the same conditions, the fluorescent intensity was reduced to about 50% of the original value. See, FIG. 7.

[12] = unknown protein u1 (predicted class SBA)
[13] = unknown protein u2 (predicted class SBA)
[14] = unknown protein u6 (predicted class SBA)
[15] = unknown protein u7 (predicted class SBA)
[16] = unknown protein u3 (predicted class Con A)
[17] = unknown protein u4 (predicted class Con A)
[18] = free glycan; cited from earlier work
[19] = free glycan, solution; cited from earlier work
[20] = Domain A; cited from earlier work
[21] = Domain B; cited from earlier work

## OC[C@H]1O[C@@H](O[C@H]2[C@H](O)[C@@H](O)[C@@H](O)O[C@@H]2CO)[C@H](O)[C@@H](O)[C@H]1O [Lac]
ConA-FSNPs
  labeling intensity by ConA-FSNPs on carbohydrate microarray: slightly less

## Arabinose
Con A [1]
  SPR shift, training matrix: 1.9 and 0.8 and 1.1
[2]; [12]
  Unknown SPR shift, weak binders: 4.5
[2]; [13]
  Unknown SPR shift, weak binders: 5
[2]; [14]
  Unknown SPR shift, weak binders: 4.5
[2]; [15]
  Unknown SPR shift, weak binders: 4.5
[3]
  Unknown SPR shift, weak binders: 1.9
[4]; [16]
  Unknown SPR shift, weak binders: 1.1
[4]; [17]
  Unknown SPR shift, weak binders: 1
SBA
  SPR shift, training matrix: 5.1 and 5.9 and 4.5
PNA [5]
  SPR shift, training matrix: 2.1 and 1.8 and 1.6

## O=C[C@H](O)[C@@H](O)[C@H](O[C@@H]1O[C@H](CO)[C@@H](O)[C@H](O)[C@H]1O)[C@H](O)CO [Cellobiose]
[2]; [12]
  Unknown SPR shift, weak binders: 2.1
[2]; [15]
  Unknown SPR shift, weak binders: 2.1

## OC[C@H]1O[C@H](O[C@@H]2C(O)O[C@H](CO)[C@@H](O)[C@@H]2O)[C@@H](O)[C@@H](O)[C@@H]1O (stereo partly drawn) [Compound 2α-Man2, 2-O-α-D-Mannopyranosyl-D-mannopyranose]
CVN-M; [18]
  Association constant Ka with CVN-M: 1320 M⁻¹
CVN-M; read-out: dissociation constant of the free ligand with CVN-M; data in brackets, free ligand; cited from earlier work
  pKd: 3.12
ConA-FSNPs
  labeling intensity by ConA-FSNPs on carbohydrate microarray: most intensely
Con A [6]; [19]
  Association constant Ka with Con A: 41700 M⁻¹
Con A [6]; read-out: dissociation constant of the free ligand with Con A; data in brackets, free ligand; cited from earlier work
  pKd: 4.62
CVN-Q; [20]
  Association constant Ka with CVN-Q: 1.43 × 10^3 (Domain A); M^−1
CVN-Q; [21]
  Association constant Ka with CVN-Q: 1.56 × 10^4 (Domain B) M^−1
CVN-Q; read-out: dissociation constant of the free ligand with CVN-Q; data in brackets, free ligand; cited from earlier work
  pKd: 4.05

## CC(=O)N[C@H]1C(O)O[C@H](CO)[C@H](O)[C@@H]1O (stereo partly drawn) [GalNAc]
[7]
  Association constant Ka with RCA: 48400 M⁻¹
SBA (Soybean Agglutinin)
  Association constant Ka with SBA: 1.51e+06 M⁻¹
PNA [8]
  Association constant Ka with PNA: 2430 M⁻¹
[9]
  Association constant Ka with DBA: 4200 M⁻¹

## OC[C@H]1O[C@H](O[C@@H]2[C@@H](O[C@@H]3C(O)O[C@H](CO)[C@@H](O)[C@@H]3O)O[C@H](CO)[C@@H](O)[C@@H]2O)[C@@H](O)[C@@H](O)[C@@H]1O (stereo partly drawn) [2α, 2α-Man3, α-1,2-α-1,2-mannotriose]
CVN-M; data in brackets, free ligand; read-out: dissociation constant of the free ligand with CVN-M; cited from earlier work
  pKd: 5.47
CVN-M; [18]
  Association constant Ka with CVN-M: 294000 M⁻¹
CVN-M; free glycan; listed as 2α,2α-Man3; cited from earlier work
  Association constant Ka with CVN-M: 294000 M⁻¹
Con A [6]; data in brackets, free ligand; read-out: dissociation constant of the free ligand with Con A; cited from earlier work
  pKd: 5.53
Con A [6]; [19]
  Association constant Ka with Con A: 379000 M⁻¹
Con A [6]; free glycan, solution; listed as 2α,2α-Man3; cited from earlier work
  Association constant Ka with Con A: 379000 M⁻¹
CVN-Q; [20]
  Association constant Ka with CVN-Q: 2.94 × 10^5 (Domain A); M^−1
CVN-Q; [21]
  Association constant Ka with CVN-Q: 2.33 × 10^4 (Domain B) M^−1
CVN-Q; data in brackets, free ligand; read-out: dissociation constant of the free ligand with CVN-Q; cited from earlier work
  pKd: 4.81

## OC[C@H]1OC(O)[C@H](O)[C@@H](O)[C@H]1O (stereo partly drawn) [Gal, D-(+)-galactose]
[10]
  Ka: ~10^3 M^−1
PNA, Peanut Agglutinin
  Ka: ~10^3 M^−1

## Lactose
Con A [1]
  SPR shift, training matrix: 6.2 and 5.1 and 7.9
[2]; [12]
  Unknown SPR shift, weak binders: 1.6
[2]; [13]
  Unknown SPR shift, weak binders: 1.1
[2]; [14]
  Unknown SPR shift, weak binders: 1.6
[2]; [15]
  Unknown SPR shift, weak binders: 1.1
[3]
  Unknown SPR shift, weak binders: 2.5
[4]; [16]
  Unknown SPR shift, weak binders: 5.5
[4]; [17]
  Unknown SPR shift, weak binders: 5.7
SBA
  SPR shift, training matrix: 1.5 and 3.7 and 1.1
PNA [5]
  SPR shift, training matrix: 3.7 and 2 and 2.4

## Dextran
ConA-FSNPs
  labeling intensity by ConA-FSNPs on carbohydrate microarray: slightly less

## O=C(O)c1cc(N=C=S)ccc1-c1c2ccc(=O)cc-2oc2cc(O)ccc12 [FITC, fluorescein isothiocyanate]
[11]
  fluorescence intensity after UV irradiation: about 50%
